Experimental data from US5164388A, “Heterocyclic peptide renin inhibitors” (Abbott Laboratories, priority 1991, dated 1992).

Target: T1, human renal renin (Homo sapiens, UniProt P00797)
T1 construct: human renal renin, free from acid proteolytic activity; from tissue
T1 sequence (P00797 67-406): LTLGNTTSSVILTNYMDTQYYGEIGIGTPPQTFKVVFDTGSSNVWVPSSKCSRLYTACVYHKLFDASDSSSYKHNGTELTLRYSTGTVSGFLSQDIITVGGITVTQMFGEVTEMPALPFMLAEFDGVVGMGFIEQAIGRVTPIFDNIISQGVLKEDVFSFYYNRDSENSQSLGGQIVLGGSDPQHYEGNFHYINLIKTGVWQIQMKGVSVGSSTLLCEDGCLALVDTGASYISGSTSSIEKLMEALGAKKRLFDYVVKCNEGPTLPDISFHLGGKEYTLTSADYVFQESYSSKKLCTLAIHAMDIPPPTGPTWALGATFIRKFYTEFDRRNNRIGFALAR
Assay: Inhibition of human renal renin in vitro (angiotensin I formed, radioimmunoassay)
Format: biochemical
Settings: human angiotensinogen substrate, 37 degrees C., pH 6.0
Method: The novel compounds of the present invention are also useful for treating congestive heart failure. […] At the end of the incubation, the amount of angiotensin I formed is measured by radioimmunoassay and the molar concentration required to cause 50% inhibition, expressed as the IC50, is calculated.

Row | SMILES | IC50 [nM]
1 | CCCCC(C(=O)N[C@@H](CC1CCCCC1)[C@@H](O)[C@@H](O)CC(C)C)N1CCC(Cc2ccccc2)CC1 (stereo partly drawn) [Example 13, 2-(4-Benzylpiperidin-1-yl)-hexanoic acid Amide of 2(S)-Amino-1-cyclohexyl-3(R),4(S)-dihydroxy-6-methylheptane] | 430
2 | CCCCC(C(=O)N[C@@H](CC1CCCCC1)[C@@H](O)[C@@H](O)CC(C)C)N1CCCC(Cc2ccccc2)C1=O (mixture of isomers) [Example 56A, 2(RS)-(3-Benzyl-2-oxo-1-piperidin-1-yl)-hexanoic acid Amide of 2(S)-Amino-1-cyclohexyl-3(R),4(S)-dihydroxy-6-heptane] | 410
3 | CCCCC(C(=O)N[C@@H](CC1CCCCC1)[C@@H](O)[C@@H](O)CC(C)C)N1CCN(C(=O)N(C)C)[C@H](Cc2ccccc2)C1 (stereo partly drawn) [Example 35A, 2-(3R-Benzyl-4-N-dimethylaminocarbonyl-piperazin-1-yl)-hexanoic acid Amide of 2(S)-Amino-1-cyclohexyl-3(R),4(S)-dihydroxy-6-methylheptane] | 91
4 | CCCCC(C(=O)N[C@@H](CC1CCCCC1)[C@@H](O)[C@@H](O)CC(C)C)N1CCN(Cc2ccccc2)CC1 (stereo partly drawn) [Example 32A, 2-(4-Benzyl-piperazin-1-yl)-hexanoic acid Amide of 2(S)-Amino-1-cyclohexyl-3(R),4(S)-dihydroxy-6-methylheptane] | 810
5 | CCCC[C@@H](C(=O)N[C@@H](CC1CCCCC1)[C@@H](O)[C@@H](O)CC(C)C)N1CC(=O)N[C@H](Cc2ccccc2)C1 [Example 24] | 170
6 | CCCCC(C(=O)N[C@@H](CC1CCCCC1)[C@@H](O)[C@@H](O)CC(C)C)N1CCCC(Cc2ccccc2)C1 (stereo partly drawn) [Example 20, 2(3-Benzylpiperidin-1-yl)-hexanoic acid Amide of 2(S)-Amino-1-cyclohexyl-3(R),4(S)-dihydroxy-6-methylheptane] | 240
7 | Cc1ccc(S(=O)(=O)N2CCN(C(Cc3cscn3)C(=O)N[C@@H](CC3CCCCC3)[C@@H](O)[C@@H]3C[C@H](C)CO3)C(=O)[C@H]2Cc2ccccc2)cc1 (stereo partly drawn) [Example 140, 3-(S-Thiazolyl)-2-(3R-benzyl-4-N-p-toluene-sulfonyl-2-keto-piperazin-1-yl)-propionic acid Amide of 2(S)-(2(S)-Amino-3-cyclohexyl-1(R)-hydroxy)propyl-4(S)-methyltetrahydrofuran] | 3.4
8 | CCCCC(C(=O)N[C@@H](CC1CCCCC1)[C@@H](O)[C@@H](O)CC(C)C)N1CCN(c2ncccn2)CC1 (stereo partly drawn) [Example 12A, 2-(4-(2-Pyrimidyl)-piperazin-1-yl)-hexanoic acid Amide of 2(S)-Amino-1-cyclohexyl-3(R),4(S)-dihydroxy-6-methylheptane] | 770
9 | CCCCNC(=O)[C@H](C[C@H](O)[C@H](CC1CCCCC1)NC(=O)C(Cc1cscn1)N1CCN(S(=O)(=O)c2ccc(C)cc2)[C@H](Cc2ccccc2)C1=O)C(C)C (stereo partly drawn) [Example 130, 3-(4-Thiazolyl)-2-(3R-benzyl-4-N-p-toluene-sulfonyl-2-keto-piperazin-1-yl)-propionic acid Amide of Butyl 5(S)-amino-6-cyclohexyl-4(S)-hydroxy-2(R)-isopropylhexan-amide] | 0.73

The remaining lines, values ahead:

Row | IC50 [nM] | SMILES
10 | 1.5 | CCCCNC(=O)[C@H](C[C@H](O)[C@H](CC1CCCCC1)NC(=O)C(Cc1cscn1)N1CCN(S(=O)(=O)N2CCN(C)CC2)[C@H](Cc2ccccc2)C1=O)C(C)C (stereo partly drawn) [Example 141]
11 | 28 | CC(C)C[C@H](O)[C@H](O)[C@H](CC1CCCCC1)NC(=O)C(Cc1cnc[nH]1)N1CCC[C@](Cc2ccccc2)(NC(=O)OCc2ccccc2)C1=O (single isomer, unassigned) [Example 88, (2R or 2S)-((3R)-((Benzyloxycarbonyl)amino)-3-phenylmethyl-2-oxo-1-piperidinyl)-3-(4-imidazolyl)propionic acid amide of (2S,3R,4S)-2-amino-1-cyclohexyl-3,4-dihydroxy-6-methylheptane]
12 | 150 | CCN1C[C@@H]([C@H](O)[C@H](CC2CCCCC2)NC(=O)[C@H](Cc2cnc[nH]2)N2C[C@H](Cc3ccccc3)N(CC(C)C)C2=O)OC1=O [Example 119, (2S)-2-(Imidazol-4-ylmethyl)-2-(3-isobutyl-(4S)-phenylmethylimidazolidin-2-one-1-yl)acetic Acid Amide of (2'S,1'R,5S)-3-Ethyl-5-(1'-hydroxy-2'-amino-3'-cyclohexylpropyl)oxazolidin-2-one]
13 | 580 | CC(C)C[C@H](O)[C@H](O)[C@H](CC1CCCCC1)NC(=O)[C@H](Cc1c[nH]cn1)N1C[C@H](Cc2ccccc2)CC1=O [Example 122, (2S)-2-(Imidazol-4-ylmethyl)-2-((4R)-phenylmethyl-2-oxopyrrolidin-1-yl)acetic Acid Amide of (2S)-Amino-1-cyclohexyl-3(R),4(S)-dihydroxy-6-methylheptane]
14 | 6.6 | CC(C)C[C@H](O)[C@H](O)[C@H](CC1CCCCC1)NC(=O)C(Cc1nccn1C(=O)OC(C)(C)C)N1CCN(S(=O)(=O)N2CCN(C)CC2)[C@H](Cc2ccccc2)C1=O (stereo partly drawn) [Example 144, 3-(3N-tert-butyloxycarbonyl-2-imidazolyl)-2-(3R-benzyl-4N-(N-methylpiperazyl)-sulfonyl-2-keto-piperazin-1-yl)-propionic acid Amide of 2(S)-Amino-1-cyclohexyl-3(R),4(S)-dihydroxy-6-methylheptane]
15 | 430 | CC(C)C[C@H](O)[C@H](O)[C@H](CC1CCCCC1)NC(=O)[C@H](Cc1c[nH]cn1)N1CC[C@@H](Cc2ccccc2)C1=O [Example 121, (2S)-2-(Imidazol-4-ylmethyl)-2-((3R)-phenylmethyl-2-oxopyrrolidin-1-yl)acetic Acid Amide of (2S)-Amino-1-cyclohexyl-3(R),4(S)-dihydroxy-6-methylheptane]
16 | 0.32 | CC(C)C[C@H](O)[C@H](O)[C@H](CC1CCCCC1)NC(=O)[C@H](Cc1cscn1)N1CCC[C@@](Cc2ccccc2)(NS(=O)(=O)N2CCN(C)CC2)C1=O [Example 151, (2S)-(3S)-((N-methylpiperazinsulfonyl)-amino-3-phenylmethyl-2-oxo-1-piperidinyl)-3-(4-thiazolyl) propionic acid amide of (2S.3R,4S)-2-amino-1-cyclohexyl-3,4-dihydroxy-6-methylheptane]
17 | 22 | CCCC[C@@H](C(=O)N[C@@H](CC1CCCCC1)[C@@H](O)[C@@H](O)CC(C)C)N1CCN(C(=O)N(C)CCOCOC)[C@H](Cc2ccccc2)C1=O [Example 48, 2(S)-(3R-Benzyl-4-N-(N-methyl-N-(methoxymethoxyethyl)-aminocarbonyl)-2-keto-piperazin-1-yl)-hexanoic acid Amide of 2(S)-Amino-1-cyclohexyl-3(R),4(S)-dihydroxy-6-methylheptane]
18 | 1.6 | C[C@@H]1CO[C@H]([C@H](O)[C@H](CC2CCCCC2)NC(=O)C(Cc2nccn2C(=O)OC(C)(C)C)N2CCN(S(=O)(=O)N3CCN(C)CC3)[C@H](Cc3ccccc3)C2=O)C1 (stereo partly drawn) [Example 146, 3-(3N-tert-butyloxycarbonyl-2-imidazolyl)-2-(3R-benzyl-4N-(N-methylpiperazyl)-sulfonyl-2-keto-piperazin-1-yl)-propionic acid Amide of 2(s)-(2(s)-Amino-3-cyclohexyl-1(R) hydroxy)propyl-4(S)-methyltetrahydrofuran]
